Literature values in patent publication US11603489B2, “Method for inhibiting water permeation in an extraction well of a hydrocarbon oil from an underground reservoir” (priority 2016, dated 2023).
Like-named read-outs stand apart in the source and are kept apart here.

Assays:
[1] = not given; remark: listed apart in the source
[2] = temperature at which the initiator has a half-life of 10 hours
[3] = distribution coefficient between water and 1-octanol
[4] = temperature at which the initiator has a half-life of 10 hours, in benzene

Compound | Log P octanol/water [3] | T1/2(10 h) in water [2] [°C] | other results
CC(C)(C#N)N=NC(N)=O [Composition V-30, 1-[(1-cyano-1-methylethyl)azo]formamide] | > 0 | – | T1/2(10 h) in benzene [1, 4]: 104 °C
CC(C)(N=NC(C)(C)C1=NCCN1)C1=NCCN1.Cl.Cl [VA-044, 2,2′-Azobis[2-(2-imidazolin-2-yl)propane]dihydrochloride] | – | 44 | –
CC(C)(C)OOC(C)(C)C [tert-butyl peroxide] | > 0 | – | T1/2(10 h) in benzene [1, 4]: 70 °C
O=S(=O)([O-])OOS(=O)(=O)[O-].[Na+].[Na+] [sodium persulfate] | – | 65 | –
CC(C)(N=NC(C)(C)C(=O)NC1CCCCC1)C(=O)NC1CCCCC1 [VAm-111, 2,2′-azobis(N-cyclohexyl-2-methylpropionamide)] | – | – | Log P octanol/water: > 0; T1/2(10 h) in benzene [1]: 111 °C
CC(C#N)(CCC(=O)O)N=NC(C)(C#N)CCC(=O)O (stereo not drawn) [4,4′-Azobis(4-cyanovaleric acid)] | – | 50 | –
CCC(C)(N=NC(C)(CC)C(=N)N1CCCC1)C(=N)N1CCCC1.Cl.Cl (stereo not drawn) [VA-067, 2,2′-Azobis(1-imino-1-pyrrolidine-2-ethylpropane)-dihydrochloride] | – | 67 | –
CC(C)(N=NC(C)(C)C1=NCCN1)C1=NCCN1.O.O.O=S(=O)(O)O.O=S(=O)(O)O [VA-046B, 2,2′-Azobis[2-(2-imidazolin-2-yl)propane]disulfate dihydrate] | – | 47 | –
C=CCNC(=O)C(C)(C)N=NC(C)(C)C(=O)NCC=C [VF-096, 2,2′-azobis[N-(2-propenyl)-2-methylpropionamide]] | – | – | Log P octanol/water: > 0; T1/2(10 h) in benzene [1]: 96 °C
CCCCNC(=O)C(C)(C)N=NC(C)(C)C(=O)NCCCC [VAm-110, 2,2′-azobis(N-butyl-2-methylpropionamide)] | – | – | Log P octanol/water: > 0; T1/2(10 h) in benzene [1]: 110 °C
CC(C)(N=NC(C)(C)C(=N)N)C(=N)N.Cl.Cl [2,2′-Azobis(2-methylpropionamidine) dihydrochloride] | – | – | T1/2(10 h) in water ([2]; dihydrochloride): 55 °C
CC(C)(N=NC(C)(C)C1=NCCN1CCO)C1=NCCN1CCO.Cl.Cl [VA-060, 2,2′-Azobis{2-[1-(2-hydroxyethyl)-2-imidazolinyl]propane}-dihydrochloride] | < 0 | 60 | –
CC(C)(N=NC(C)(C)C(=N)NCCC(=O)O)C(=N)NCCC(=O)O.O.O.O.O [VA-057, 2,2′-Azobis[N-(2-carboxyethyl)-2-methylpropionamidine]tetrahydrate] | < 0 | 57 | –
CC(C)(C)OOC(=O)c1ccccc1 [tert-butyl peroxybenzoate] | > 0 | – | T1/2(10 h) in benzene [1, 4]: 73 °C
CC(C)(N=NC(C)(C)C(=O)NC(CO)(CO)CO)C(=O)NC(CO)(CO)CO [VA080, 2,2′-Azobis{2-methyl-N-[1,1-bis(hydroxymethyl)-2-hydroxyethyl]propionamide}] | – | 80 | Log P octanol/water: < 0
O.O.O=S(=O)([O-])CO.[Na+] [hydroxymethanesulfonic acid monosodium salt dihydrate] | < 0 | 60 | –
O=S(=O)([O-])OOS(=O)(=O)[O-].[K+].[K+] [potassium persulfate] | – | 65 | –
N.N.O=S(=O)(O)OOS(=O)(=O)O [ammonium persulfate] | – | 65 | –
CC(C)(OOC(C)(C)c1ccccc1)c1ccccc1 [dicumyl peroxide] | > 0 | – | T1/2(10 h) in benzene [1, 4]: 75 °C
CCC(C)(C#N)N=NC(C)(C#N)CC (stereo not drawn) [Composition V-59, 2,2′-azobis(2-methylbutyronitrile)] | > 0 | – | –
CC(C)(N=NC(C)(C)C1=NCCN1)C1=NCCN1 [VA-061, 2,2′-Azobis[2-(2-imidazolin-2-yl)propane]] | – | 61 | –
CC(C)(N=NC(C)(C)C(=O)NCCO)C(=O)NCCO [VA086, 2,2′-Azobis[2-methyl-N-(2-hydroxyethyl)propionamide]] | – | 87 | –
O=C(OOC(=O)c1ccccc1)c1ccccc1 [benzoyl peroxide] | > 0 | – | –
CCCCCCCCCCCC(=O)OOC(=O)CCCCCCCCCCC [lauroyl peroxide] | > 0 | – | T1/2(10 h) in benzene [1, 4]: 75 °C
